Results as given in patent publication US20240140975A1, “ANTIVIRAL APPLICATION OF NUCLEOSIDE ANALOG OR COMBINATION FORMULATION CONTAINING NUCLEOSIDE ANALOG” (priority 2020, published 2024).
Where two headings read alike, the source gives them in different places.

Tests used:
[1] = tested on: 2019 novel coronavirus (SARS-CoV-2); test: microbe, parasite or virus in culture; format: cell-based; conditions: Vero E6 cells, 24 h p.i.; for inhibition at 5 µM: Severe acute respiratory syndrome coronavirus 2, Vero C1008, 24 h, read-out: Inhibition Rate (5 μM); for EC50: Severe acute respiratory syndrome coronavirus 2, Vero C1008, read-out: EC50
[2] = tested on: respiratory syncytial virus (RSV); test: Cytopathic effect (CPE) assay, RSV in HEp-2; format: cell-based; conditions: human respiratory syncytial virus, HEp-2 cells
[3] = tested on: human coronavirus OC43 (HCoV OC43); test: Cytopathic effect (CPE) assay, HCoV OC43 in Huh7; format: cell-based; conditions: Betacoronavirus 1, OC43, Huh-7, Huh7 cells
Method: The inhibitory effects of compounds on the replication of respiratory syncytial virus (RSV), human coronavirus OC43, influenza A virus, Zika virus (Zika) were tested using cytopathic effect (CPE) assay.
Experimental cells were inoculated in 96-well cell culture plate at a certain cell density, and cultured in an incubator (5% CO2, 37° C.) overnight. Compounds and viruses were added on the second day. […] Then cell viability of each well was detected using Cell Titer-Glo or CCK-8. […] The cytotoxicity test method was the same as the corresponding antiviral test method without virus infection.
The antiviral activity and cytotoxicity of the compounds are respectively indicated by the inhibition rate (%) of compounds on virus-induced cellular viral effects and cell viability (%). Calculating formulas are as follows:
Inhibition rate (%)=(reading value of test well—average value of virus control)/(average value of cell control—average value of virus control)×100;
EC50 and CC50 value are calculated by Prism software, and the inhibition curve fitting method is “log (inhibitor) vs. response—Variable slope”.

[4] = tested on: porcine epidemic diarrhea virus (PEDV); test: Anti-porcine epidemic diarrhea virus (PEDV) activity test in Vero cells, fluorescence quantitative PCR; format: cell-based; conditions: 36 h
[5] = in vivo; conditions: male, CD-1, mouse
[6] = in vitro; conditions: human
[7] = in vitro; conditions: human; remark: listed apart in the source
[8] = Pharmacokinetic evaluation in mice
[9] = tested on: Zika virus (Zika); test: Cytopathic effect (CPE) assay, Zika virus in Huh7; format: cell-based; conditions: for EC50: Huh-7, Huh7 cells, CPE
[10] = tested on: dengue fever virus (DENV); test: Dengue virus plaque reduction test in Vero cells; format: cell-based; conditions: Dengue virus, read-out: DENV (Vero) 5 μM (inhibition rate), 5 μM, plaque reduction
[11] = parameters: species or system SD rats; conditions: male, Sprague-Dawley (SD), rat, in vivo
Method: 18 male SD rats were randomly divided into 6 groups, with 3 rats for each group. Before the experiment, they were fasted for 12 hours (not for the intravenous experiment group) and allowed to drink water. 4 hours after dosing, the animals were fed. Among them, 3 groups were intragastrically administered with 10 mg/kg of A9, A146 and A151, respectively, and the remaining 3 groups were intravenously administered with 2 mg/kg of A9, A146 and A151, respectively. The vehicle for administration was DMSO/EtOH/PEG300/0.9% NaCl (5/5/40/50, v/v/v/v).
5 min (intravenous only), 0.25, 0.5, 1.0, 2.0, 4.0, 6.0, 8.0 and 24 h post administration, 0.2 mL of blood sample was collected from jugular vein into EDTA-K2 tubes, and centrifuged at 11000 rpm for 5 min. The plasma was separated, and frozen in a refrigerator at −70° C. for testing. The operation was conducted in an ice water bath. The concentration of A9 in plasma was determined by LC-MS-MS, and the pharmacokinetic parameters were calculated.

[12] = Tissue distribution test in mice; format: in vivo, CD-1 mice; conditions: oral administration of A151, liver, kidney, lung, heart
Method: 16 male CD-1 mice were randomly divided into 4 groups, with 4 mice for each group.
Before the experiment, they were fasted for 12 hours and allowed to drink water. 2 hours after dosing, the animals were fed. The 4 groups were given 200 mg/kg A151 (dissolved in DMSO-enthanol-PEG300-saline, volume ratio: 5/5/40/50) by intragastric administration. At 1 h, 2 h, 4 h and 8 h after administration, the mice were anesthetized; blood sample was collected by heart puncture, and tissues of liver, kidney, heart and lung were harvested. The distribution profile of A9 in the tissues was determined by HPLC-MS/MS.

[13] = Porcine epidemic diarrhea virus, Vero
[14] = male, CD-1, mouse, in vivo, po, 50 mg/kg

| Compound | inhibition at 5 µM [1] [%] | EC50 [2] [nM] | EC50 [3] [nM] | EC50 [4, 13] [nM] | half-life ([5]; po, 50 mg/kg) [h] | CC50 [6] [nM] | CC50 [7] [nM] | AUC(0-inf) [8, 14] [ng·h/mL] | AUC(0-t) [8, 14] [ng·h/mL] | Cmax [8, 14] [ng/mL] | Tmax [8, 14] [h] | EC50 [1] [nM] | EC50 [9] [nM] | F % (oral bioavailability) [11] [%] | T1/2 ([11]; iv, 2 mg/kg) [h] | T1/2 ([11]; po, 10 mg/kg) [h] | further results |
| --- | --- | --- | --- | --- | --- | --- | --- | --- | --- | --- | --- | --- | --- | --- | --- | --- | --- |
| [2H]c1cc([C@]2(C#N)O[C@H](C([2H])([2H])O)[C@@H](O)[C@H]2O)n2ncnc(N)c12 (stereo in doubt) [Compound A11] | > 98 | 660 | 1990 | 5 | 1.9 | > 10000 | > 10000 | 5750 | 5680 | 2120 | 0.7 | – | – | – | – | – | – |
| [2H]c1cc([C@]2(C#N)O[C@H](CO)[C@@H](O)[C@H]2O)n2ncnc(N)c12 [Compound A9] | 99 | 560 | 1770 | 16 | 1 | > 10000 | > 10000 | 6010 | 5980 | 3230 | 1.2 | 440 | 12000 | 21.3 | 2.3 | 3.4 | inhibition at 5 µM [10]: 100% |
| [2H]C([2H])(O)[C@H]1O[C@@](C#N)(c2ccc3c(N)ncnn23)[C@H](O)[C@@H]1O [Compound A10] | 99 | 630 | 1980 | 6 | 1.3 | > 10000 | > 10000 | 4620 | 4550 | 1760 | 0.8 | 430 | – | – | – | – | – |
| [2H]c1cc([C@]2(C#N)O[C@H](COC(=O)C(C)C)[C@@H](O)[C@H]2O)n2ncnc(N)c12 [Compound A70] | 99 | 580 | 1900 | 2 | – | > 10000 | > 10000 | – | – | – | – | – | – | – | – | – | inhibition at 5 µM ([9]; Huh-7, 5 μM, Huh7 cells): ~27% |
| [2H]c1cc([C@]2(C#N)O[C@H](COC(=O)C(C)C)[C@@H](OC(=O)C(C)C)[C@H]2OC(=O)C(C)C)n2ncnc(N)c12 [Compound A151] | 99 | 630 | 1990 | < 100 | – | > 10000 | – | – | – | – | – | 310 | – | 56.7 | 1.5 | 2.6 | tissue distribution of metabolite A9 (in words) [12]: evenly distributed, without accumulation in liver or kidney |
| N#C[C@@]1(c2ccc3c(N)ncnn23)O[C@H](CO)[C@@H](O)[C@H]1O [GS-441524, reference compound] | 99 | 730 | 1880 | – | 1.2 | > 10000 | > 10000 | 4620 | – | – | – | 480 | 15000 | – | – | – | EC50 [4]: 26 nM; half-life ([5]; iv, 25 mg/kg): 1 h; AUC(0-inf) ([8]; male, CD-1, mouse, in vivo, iv, 25 mg/kg): 14600 ng·h/mL; Tmax ([8]; mice, p.o. 50 mg/kg, plasma): 0.8 h |
